From DBAASP
Converted amounts (≈) assume the structure as drawn. “And” between values parts separate entries of the source, which are not always exact repeats. Identical values can stand only once. Values belong to the compound of their own block, whether it stands above or below them.

Tests used:
Assay in all cases: ≥ marks a high value that may be exact or a test limit, other limits are often not marked, values filed in µg/mL are converted to µM
[1] = system: Candida albicans ATCC 64549
[2] = system: Staphylococcus epidermidis ATCC 12228
[3] = system: Pseudomonas aeruginosa ATCC 27853
[4] = system: Staphylococcus aureus ATCC 25923
Escherichia coli 804 = system: Escherichia coli 804
Staphylococcus aureus 75 = system: Staphylococcus aureus 75
[5] = system: Acinetobacter baumannii 97830
[6] = system: Klebsiella pneumoniae ATCC 700603
[7] = system: Staphylococcus aureus 113
Escherichia coli 780 = system: Escherichia coli 780
[8] = system: Escherichia coli ATCC 25922
[9] = system: Pseudomonas aeruginosa ATCC 9027
[10] = system: Acinetobacter baumannii 9931
[11] = system: Pseudomonas aeruginosa 50
[12] = system: Acinetobacter baumannii ATCC 19606
[13] = system: Pseudomonas aeruginosa 73
[14] = system: Bacillus subtilis ATCC 23857
[15] = system: Staphylococcus aureus ATCC 29213
[16] = system: Staphylococcus epidermidis
[17] = system: Salmonella enterica subsp. enterica serovar Typhimurium ATCC 14028s
Escherichia coli DC2 = system: Escherichia coli DC2
[18] = system: Pseudomonas aeruginosa PAO1
Escherichia coli O157:H7 = system: Escherichia coli O157:H7
[19] = system: Pseudomonas aeruginosa Z61
[20] = system: Salmonella enterica serovar Typhimurium MS4252S
[21] = system: Staphylococcus aureus NCTC 4163
Candida albicans 3153A = system: Candida albicans 3153A
Escherichia coli UB1005 = system: Escherichia coli UB1005
[22] = system: Staphylococcus aureus 1056
Escherichia coli O111 = system: Escherichia coli O111
[23] = system: Staphylococcus aureus R147
[24] = system: Enterococcus faecalis ATCC 29212
Candida albicans 105 = system: Candida albicans 105
Staphylococcus aureus = system: Staphylococcus aureus
[25] = system: Shigella dysenteriae ATCC 9752
Lactococcus lactis = system: Lactococcus lactis
[26] = system: Micrococcus luteus ATCC 4698
[27] = system: Staphylococcus aureus KCTC 3881
[28] = system: Bacillus subtilis ATCC 6633
[29] = system: Proteus mirabilis ATCC 25933
[30] = system: Candida albicans ATCC 36232
[31] = system: Klebsiella pneumoniae ATCC 10031
[32] = system: Escherichia coli KCTC 2433
Bacillus cereus = system: Bacillus cereus
Escherichia coli = system: Escherichia coli
[33] = system: Staphylococcus aureus NCTC 10571
Klebsiella sp. = system: Klebsiella sp.
Providencia stuartii = system: Providencia stuartii
Acinetobacter sp. = system: Acinetobacter sp.
Proteus mirabilis = system: Proteus mirabilis
Klebsiella aerogenes = system: Klebsiella aerogenes
[34] = system: Escherichia coli NCTC 10418
[35] = system: Escherichia coli NCTC 8007

Compound: CSCC[C@H](NC(=O)[C@H](CC(N)=O)NC(=O)[C@H](CCCN=C(N)N)NC(=O)[C@H](CCC(N)=O)NC(=O)[C@H](Cc1c[nH]c2ccccc12)NC(=O)[C@H](CCC(N)=O)NC(=O)[C@H](Cc1ccccc1)NC(=O)[C@@H](N)CS)C(=O)N[C@@H](CCCN=C(N)N)C(=O)N[C@@H](CCCCN)C(=O)N[C@H](C(=O)N[C@@H](CCCN=C(N)N)C(=O)O)C(C)C [CFQWQRNMRKVR]
- MIC [1]: 7.57 µM (≈ 12.5 µg/mL)

Compound: C[C@H](N)C(=O)N[C@@H](CCCN=C(N)N)C(=O)N[C@@H](Cc1c[nH]c2ccccc12)C(=O)N[C@@H](Cc1c[nH]c2ccccc12)C(=O)N[C@@H](Cc1c[nH]c2ccccc12)C(=O)N[C@@H](CCCN=C(N)N)C(=O)N[C@@H](C)C(N)=O [ARWWWRA]
- MIC [2]: 32 µM (≈ 33 µg/mL)
- MIC [3]: > 128 µM
- MIC [4]: 64 µM and 128 µM
- MIC (Escherichia coli 804): ≥ 128 µM
- MIC (Staphylococcus aureus 75): ≥ 64 µM
- MIC [5]: ≥ 128 µM
- MIC [6]: > 128 µM
- MIC [7]: ≥ 64 µM
- MIC (Escherichia coli 780): ≥ 128 µM
- MIC [8]: > 128 µM
- MIC [9]: > 128 µM
- MIC [10]: ≥ 128 µM
- MIC [11]: ≥ 128 µM
- MIC [12]: > 128 µM
- MIC [13]: ≥ 128 µM
- MIC [14]: 16 µM (≈ 16.5 µg/mL)
- MIC [15]: 128 µM (≈ 132 µg/mL)

Compound: CC[C@H](C)[C@H](NC(=O)[C@H](CC(C)C)NC(=O)[C@@H](N)Cc1ccccc1)C(=O)NCC(=O)N[C@@H](CCSC)C(=O)N[C@H](C(=O)N[C@@H](CCC(N)=O)C(=O)NCC(=O)N[C@@H](CC(C)C)C(=O)N[C@H](C(=O)N[C@H]1CSSC[C@@H](C(=O)O)NC(=O)[C@H](CCCCN)NC(=O)[C@H](CCCN=C(N)N)NC(=O)[C@H]([C@@H](C)O)NC(=O)[C@H]([C@@H](C)CC)NC(=O)[C@H](CC(C)C)NC1=O)[C@@H](C)CC)[C@@H](C)O [FLIGMTQGLICLITRKC]
- MIC [2]: 13.1 µM (≈ 25 µg/mL)
- MIC (Staphylococcus aureus): 12.8 µM (≈ 24.4 µg/mL)
- MIC [25]: 26.2 µM (≈ 49.9 µg/mL)
- MIC (Lactococcus lactis): 25.6 µM (≈ 48.9 µg/mL)
- MIC [26]: 3.27 µM (≈ 6.24 µg/mL)
- MIC [27]: 7.85 µM (≈ 15 µg/mL)
- MIC [28]: 13.1 µM (≈ 25 µg/mL)
- MIC [29]: ≥ 52.3 µM
- MIC [9]: > 52.3 µM
- MIC [30]: ≥ 52.3 µM
- MIC [31]: 31.4 µM (≈ 59.9 µg/mL)
- MIC [32]: 31.4 µM (≈ 59.9 µg/mL)
- MIC (Bacillus cereus): 25.6 µM (≈ 48.9 µg/mL)
- MIC (Escherichia coli): 25.6 µM (≈ 48.9 µg/mL)

Second part, the compound after the results:

- MIC [16]: 8.89 µM (≈ 32 µg/mL)
- MIC [17]: 8.89 µM (≈ 32 µg/mL)
- MIC (Escherichia coli DC2): 0.555 µM (≈ 2 µg/mL)
- MIC [18]: 4.44 µM (≈ 16 µg/mL)
- MIC (Escherichia coli O157:H7): 8.89 µM (≈ 32 µg/mL)
- MIC [19]: 8.89 µM (≈ 32 µg/mL)
- MIC [20]: 0.555 µM (≈ 2 µg/mL)
- MIC [21]: 17.8 µM (≈ 64 µg/mL)
- MIC (Candida albicans 3153A): 17.8 µM (≈ 64 µg/mL)
- MIC (Escherichia coli UB1005): 2.22 µM (≈ 8 µg/mL)
- MIC [22]: 17.8 µM (≈ 64 µg/mL)
- MIC (Escherichia coli O111): 4.44 µM (≈ 16 µg/mL)
- MIC [23]: 8.89 µM (≈ 32 µg/mL)
- MIC [24]: 17.8 µM (≈ 64 µg/mL)
- MIC (Candida albicans 105): 17.8 µM (≈ 64 µg/mL)
Compound: CC[C@H](C)[C@H](NC(=O)[C@@H]1CCCN1C(=O)[C@H](CCCN=C(N)N)NC(=O)[C@@H]1CCCN1C(=O)[C@@H](NC(=O)[C@H](CCCN=C(N)N)NC(=O)[C@@H](N)CCCN=C(N)N)[C@@H](C)CC)C(=O)N[C@@H](CC(C)C)C(=O)N[C@@H](CC(C)C)C(=O)N1CCC[C@H]1C(=O)N[C@@H](Cc1c[nH]c2ccccc12)C(=O)N[C@@H](CCCN=C(N)N)C(=O)N1CCC[C@H]1C(=O)N1CCC[C@H]1C(=O)N[C@@H](CCCN=C(N)N)C(=O)N1CCC[C@H]1C(=O)N[C@H](C(=O)N1CCC[C@H]1C(=O)N[C@@H](CCCN=C(N)N)C(=O)N1CCC[C@H]1C(=O)N[C@@H](CCC(N)=O)C(=O)N1CCC[C@H]1C(=O)N[C@@H](CCC(N)=O)C(=O)N1CCC[C@H]1C(=O)N[C@H](C(=O)N1CCC[C@H]1C(=O)N[C@@H](CCCN=C(N)N)C(=O)N[C@@H](Cc1c[nH]c2ccccc12)C(=O)N[C@@H](CC(C)C)C(N)=O)[C@@H](C)CC)[C@@H](C)CC [RRIPRPILLPWRPPRPIPRPQPQPIPRWL]

- MIC [33]: ≥ 250 µM
- MIC (Klebsiella sp.): ≥ 1000 µM
- MIC (Providencia stuartii): ≥ 1000 µM
- MIC (Acinetobacter sp.): 10 µM (≈ 15.1 µg/mL)
- MIC (Proteus mirabilis): ≥ 1000 µM
- MIC (Klebsiella aerogenes): ≥ 1000 µM
- MIC [34]: ≥ 750 µM
- MIC [35]: ≥ 1000 µM
Compound: CC(C)[C@H](NC(=O)[C@H](CCCCN)NC(=O)[C@H](CCCN=C(N)N)NC(=O)[C@@H]1CCCN1C(=O)[C@H](CC(N)=O)NC(=O)[C@H](CCCN=C(N)N)NC(=O)[C@H](CCC(N)=O)NC(=O)[C@H](Cc1c[nH]c2ccccc12)NC(=O)[C@H](CCC(N)=O)NC(=O)[C@@H](N)Cc1ccccc1)C(=O)N[C@@H](CCCN=C(N)N)C(=O)O [FQWQRNPRKVR]
